This is an account of results in patent US20090192176A1, “1H-PYRAZOLO[3,4-D]PYRIMIDINE, PURINE, 7H-PURIN-8(9H)-ONE, 3H-[1,2,3]TRIAZOLO[4,5-D]PYRIMIDINE, AND THIENO[3,2-D]PYRIMIDINE COMPOUNDS, THEIR USE AS mTOR KINASE AND PI3 KINASE INHIBITORS, AND THEIR SYNTHESES” (Wyeth, priority 2008, published 2009).

Holding throughout (type): biochemical
The target in one assay is T1, Human mTOR (Homo sapiens, UniProt P42345).
T1 construct: FLAG
Put plainly: mTOR kinase assay (DELFIA format, purified enzyme). The note with it: His6-S6K substrate, read-out: TOR Kinase IC50. As to the method: mTOR Kinase Assay Methods
Human mTOR assays (See Toral-Barza, et al. Biochem Biophys. Res. Commun. 2005 Jun. 24; 332(1):304-10) with purified enzyme are performed in 96-well plates by DELFIA format as follows. Enzymes are first diluted in kinase assay buffer (10 mM HEPES (pH 7.4), 50 mM NaCl, 50 mM β-glycerophosphate, 10 mM MnCl2, 0.5 mM DTT, 0.25 mM microcystin LR, and […]). To each well, 12 μL of the diluted enzyme is mixed briefly with 0.5 μL test inhibitor or control vehicle dimethylsulfoxide (DMSO). The kinase reaction is initiated by adding 12.5 μL kinase assay buffer containing ATP and His6-S6K to give a final reaction volume of 25 μL containing 800 ng/mL FLAG-TOR, […] and […]. The reaction plate is incubated for 2 hours (linear at 1-6 hours) at room temperature with gentle shaking and then terminated by adding 25 μL Stop buffer (20 mM HEPES (pH 7.4), 20 mM EDTA, 20 mM EGTA). The DELFIA detection of the phosphorylated (Thr-389) His6-S6K is performed at room temperature using a monoclonal anti-P(T389)-p70S6K antibody (1A5, Cell Signaling) labeled with Europium-N1-ITC (Eu) (10.4 Eu per antibody, PerkinElmer). The DELFIA Assay buffer and Enhancement solution can be purchased from PerkinElmer. 45 μL of the terminated kinase reaction mixture is transferred to a MaxiSorp plate (Nunc) containing 55 μL PBS. The His6-S6K is allowed to attach for 2 hours after which the wells are aspirated and washed once with PBS. 100 μL of DELFIA Assay buffer with 40 ng/mL Eu-P(T389)-S6K antibody is added. The antibody binding is continued for 1 hour with gentle agitation. The wells are then aspirated and washed 4 times with PBS containing 0.05% Tween-20 (PBST). 100 μL of DELFIA Enhancement solution is added to each well and the plates are read in a PerkinElmer Victor model plate reader. Data obtained is used to calculate enzymatic activity and enzyme inhibition by potential inhibitors.

Another assay deals with PI3 Kinase α (Homo sapiens, UniProt P42336). Put plainly: Fluorescence polarization assay for PI3K. As to the method:
(§1) Fluorescence Polarization Assay for PI3K
(§2) This assay is used to determine the IC50 of compounds of the present invention as it identifies inhibitors of PI3 kinase by measuring inhibition.
(§3) Reaction Buffer: 20 mM HEPES, pH 7.5, 2 mM MgCl2, 0.05% CHAPS; and 0.01% BME (added fresh) Stop/Detection Buffer: 100 mM HEPES, pH 7.5, 4 mM EDTA, 0.05% CHAPS; ATP 20 mM in water; PIP2 (diC8, cat# P-4508) 1 mM in water (MW=856.5); GST-GRP 1.75 mg/mL or 1.4 mg/mL in 10% glycerol; Red detector (TAMRA) 2.5 μM; Plate: Nunc 384 well black polypropylene fluorescence plate.
(§4) The assay is run by placing 5 μL of diluted enzyme per well, then 5 μL of diluted compound (or 9.5 μL enzyme then 0.5 μL compound in DMSO) is added and mixed. Then, 10 μL substrate is added to start the reaction. The samples are incubated 30-60 minutes, then the reaction is stopped by adding 20 μL stop/detector mix. PI3K is diluted with reaction buffer (e.g., 5 μL or 7.5 μL PI3K into 620 μL reaction buffer), and 5 μL of diluted enzyme is used per well. 5 μL reaction buffer or drug diluted in buffer (e.g., 4 μL/100 so final DMSO is 1% in reaction) is added to each. Pipetting up and down mixes the samples. Alternatively, the enzyme can be diluted to 1215 μL. In this case 9.8 μL is added per well and 0.2 μL compound is added in DMSO. To prepare 1 mL of substrate solution, 955 μL reaction buffer, 40 μL PIP2, and 2.5 μL ATP are mixed. 10 μL of substrate is added to each well to start the reaction.
(§5) Stop/detector mix is prepared by mixing 4 μL Red detector and 1.6 μL or 2.0 μL GST-GRP with 1 mL Stop buffer, which results in 10 nM probe and 70 nM GST-GRP). 20 μL of the stop/detector mix is added to each well to stop the reaction. The plates are read after 30-90 minutes keeping the red probe solutions dark. For the zero time point, stop/detector mix is added to the enzyme just before adding substrate. For an extra control, stop/detector mix is added to buffer (no enzyme) and substrate or to just buffer (no substrate). […] The recommended reaction has 0.06 μL per 20 μL (0.015 μg/20 μL) or 0.01125 μg/15 μL or 0.75 μg/mL. Plates are read on machines with filters for Tamra. The units are mP with no enzyme controls reading app 190-220 mP units. Fully active enzyme reduces fluorescence polarization down to 70-100 mP after 30 minutes. An active compound raises the mP values halfway to control or to 120-150 mP units.
(In general: Fluorescence polarisation rises when a labelled molecule tumbles more slowly, as on binding a larger partner.)

The target of the next assay is PI3 Kinase γ (Homo sapiens, UniProt P48736). The assay is described as follows: Fluorescence polarization assay for PI3K. Here is the method: as §1, §2, §3, §4, §5
Chain of PI3 Kinase γ (P48736 whole entry): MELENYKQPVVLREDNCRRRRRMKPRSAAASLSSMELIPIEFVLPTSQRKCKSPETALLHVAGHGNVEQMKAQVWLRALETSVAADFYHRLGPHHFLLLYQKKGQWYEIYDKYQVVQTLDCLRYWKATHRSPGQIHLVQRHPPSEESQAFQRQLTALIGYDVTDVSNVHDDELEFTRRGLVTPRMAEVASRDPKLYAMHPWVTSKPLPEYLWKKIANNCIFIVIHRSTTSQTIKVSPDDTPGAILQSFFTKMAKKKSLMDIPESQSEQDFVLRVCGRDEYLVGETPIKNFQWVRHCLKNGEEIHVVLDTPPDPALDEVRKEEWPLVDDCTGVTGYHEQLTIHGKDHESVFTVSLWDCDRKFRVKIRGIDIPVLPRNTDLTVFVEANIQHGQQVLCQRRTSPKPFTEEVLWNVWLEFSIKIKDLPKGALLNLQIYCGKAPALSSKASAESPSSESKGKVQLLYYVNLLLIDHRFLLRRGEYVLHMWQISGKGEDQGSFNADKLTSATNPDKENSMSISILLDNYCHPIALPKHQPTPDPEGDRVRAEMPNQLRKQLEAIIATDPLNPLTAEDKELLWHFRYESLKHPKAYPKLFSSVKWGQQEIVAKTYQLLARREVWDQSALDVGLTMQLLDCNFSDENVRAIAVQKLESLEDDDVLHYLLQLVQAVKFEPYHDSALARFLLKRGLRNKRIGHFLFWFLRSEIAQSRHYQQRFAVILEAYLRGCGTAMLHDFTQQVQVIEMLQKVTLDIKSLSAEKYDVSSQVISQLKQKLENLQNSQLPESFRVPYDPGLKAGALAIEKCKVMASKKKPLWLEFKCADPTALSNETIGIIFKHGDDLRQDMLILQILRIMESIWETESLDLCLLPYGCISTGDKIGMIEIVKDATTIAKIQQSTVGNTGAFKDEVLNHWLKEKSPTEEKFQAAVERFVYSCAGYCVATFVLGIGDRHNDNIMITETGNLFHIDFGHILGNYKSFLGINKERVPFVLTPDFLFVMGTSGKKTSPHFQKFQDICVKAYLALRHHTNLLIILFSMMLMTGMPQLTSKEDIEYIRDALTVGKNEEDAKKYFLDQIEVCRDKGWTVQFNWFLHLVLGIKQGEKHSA

Chain of PI3 Kinase α (P42336 whole entry): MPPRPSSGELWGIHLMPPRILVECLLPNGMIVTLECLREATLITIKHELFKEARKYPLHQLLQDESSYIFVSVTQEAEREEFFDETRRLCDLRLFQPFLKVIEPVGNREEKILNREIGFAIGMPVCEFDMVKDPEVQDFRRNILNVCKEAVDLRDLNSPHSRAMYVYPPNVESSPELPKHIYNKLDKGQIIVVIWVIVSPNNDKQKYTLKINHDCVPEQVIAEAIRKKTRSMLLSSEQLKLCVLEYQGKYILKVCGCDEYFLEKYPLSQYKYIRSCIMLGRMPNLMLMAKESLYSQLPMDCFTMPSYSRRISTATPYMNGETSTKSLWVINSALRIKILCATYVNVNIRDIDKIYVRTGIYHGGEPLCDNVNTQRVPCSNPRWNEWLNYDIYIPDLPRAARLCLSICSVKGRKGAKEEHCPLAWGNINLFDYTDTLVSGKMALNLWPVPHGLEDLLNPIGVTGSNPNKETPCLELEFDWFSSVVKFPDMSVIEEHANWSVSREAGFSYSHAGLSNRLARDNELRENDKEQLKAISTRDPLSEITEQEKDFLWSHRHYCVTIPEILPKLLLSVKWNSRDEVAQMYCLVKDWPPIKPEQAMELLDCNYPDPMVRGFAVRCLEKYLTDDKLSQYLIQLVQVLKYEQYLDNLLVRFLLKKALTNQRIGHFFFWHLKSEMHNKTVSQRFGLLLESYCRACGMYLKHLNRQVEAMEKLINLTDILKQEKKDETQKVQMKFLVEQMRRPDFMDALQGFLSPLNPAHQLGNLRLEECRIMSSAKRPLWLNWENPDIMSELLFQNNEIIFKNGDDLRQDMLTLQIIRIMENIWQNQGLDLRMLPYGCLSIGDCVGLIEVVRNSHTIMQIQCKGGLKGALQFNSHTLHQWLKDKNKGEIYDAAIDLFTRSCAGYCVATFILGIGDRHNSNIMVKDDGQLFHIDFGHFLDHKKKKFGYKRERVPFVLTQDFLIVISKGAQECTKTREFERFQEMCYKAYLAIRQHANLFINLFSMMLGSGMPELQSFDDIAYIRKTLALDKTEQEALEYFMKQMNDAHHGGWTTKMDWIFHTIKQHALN
Chain of PI3 Kinase α (P27986 whole entry partner): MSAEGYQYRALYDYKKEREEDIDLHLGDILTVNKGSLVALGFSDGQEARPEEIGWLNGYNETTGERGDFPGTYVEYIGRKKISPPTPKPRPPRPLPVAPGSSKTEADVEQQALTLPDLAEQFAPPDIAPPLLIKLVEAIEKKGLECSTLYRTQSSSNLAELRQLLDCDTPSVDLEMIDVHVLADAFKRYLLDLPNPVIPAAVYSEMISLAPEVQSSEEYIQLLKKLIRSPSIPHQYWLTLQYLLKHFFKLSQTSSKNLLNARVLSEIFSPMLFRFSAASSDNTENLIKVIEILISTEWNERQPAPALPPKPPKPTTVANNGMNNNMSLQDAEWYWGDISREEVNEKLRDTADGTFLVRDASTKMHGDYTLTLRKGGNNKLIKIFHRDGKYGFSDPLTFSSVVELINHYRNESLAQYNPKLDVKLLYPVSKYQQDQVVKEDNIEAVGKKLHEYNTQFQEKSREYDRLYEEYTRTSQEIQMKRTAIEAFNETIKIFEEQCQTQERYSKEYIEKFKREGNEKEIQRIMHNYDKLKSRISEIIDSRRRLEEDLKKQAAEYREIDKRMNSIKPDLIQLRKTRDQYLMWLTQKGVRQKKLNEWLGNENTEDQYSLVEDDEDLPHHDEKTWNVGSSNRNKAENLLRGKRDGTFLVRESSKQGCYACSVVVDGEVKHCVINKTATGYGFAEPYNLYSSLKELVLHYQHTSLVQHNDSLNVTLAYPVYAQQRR

For orientation: IC50 means the point on the concentration scale where inhibition reaches its midpoint. As for “5-[9-{1-[(5-bromopyridin-3-yl)methyl]piperidin-4-yl}-6-(3,6-dihydro-2H-pyran-4-yl)-9H-purin-2-yl]pyridin-3-ol [Compound 35]”, the IC50 at Human mTOR stood at 9.8 µM; at PI3 Kinase α, 1.34 µM; against PI3 Kinase γ, 6.74 µM.
Regarding “7,9-dibenzyl-6-(3,6-dihydro-2H-pyran-4-yl)-2-(3-hydroxyphenyl)-7,9-dihydro-8H-purin-8-one [Compound 66]”, the figures for the IC50 at Human mTOR, against PI3 Kinase α and against PI3 Kinase γ were 14 µM, 2.43 µM and 1.61 µM, respectively.
In the case of `Oc1cccc(-c2nc(C3=CCOCC3)c3nc[nH]c3n2)c1` [Compound 11, 3-[6-(3,6-dihydro-2H-pyran-4-yl)-9H-purin-2-yl]phenol], the IC50 on Human mTOR amounted to 1.4 µM; on PI3 Kinase α, 0.085 µM; on PI3 Kinase γ, 1.25 µM.
Turning to `Oc1cccc(-c2nc(C3=CCOCC3)c3ncn(C4CCN(Cc5ccccc5)CC4)c3n2)c1` [Compound 12, 3-[9-(1-benzylpiperidin-4-yl)-6-(3,6-dihydro-2H-pyran-4-yl)-9H-purin-2-yl]phenol], the IC50 turned out to be 1.8 µM on Human mTOR, 1.77 µM against PI3 Kinase α and 5 µM against PI3 Kinase γ.
For the compound `Oc1cccc(-c2nc(C3=CCOCC3)c3ncn(C4CCN(Cc5ccco5)CC4)c3n2)c1` [Compound 13, 3-{6-(3,6-dihydro-2H-pyran-4-yl)-9-[1-(2-furylmethyl)piperidin-4-yl]-9H-purin-2-yl}phenol], the 50% inhibitory concentration (IC50) at Human mTOR turned out to be 1.4 µM; against PI3 Kinase α, 0.832 µM; against PI3 Kinase γ, 0.859 µM.
The corresponding values for `Oc1cccc(-c2nc(C3=CCOCC3)c3ncn(C4CCN(Cc5ccc(N6CCOCC6)nc5)CC4)c3n2)c1` [Compound 14, 3-[6-(3,6-dihydro-2H-pyran-4-yl)-9-{1-[(6-morpholin-4-ylpyridin-3-yl)methyl]piperidin-4-yl}-9H-purin-2-yl]phenol] are 0.86 µM, 1.49 µM and greater than 10 µM.
The corresponding values for `Oc1cccc(-c2nc(C3=CCOCC3)c3ncn(C4CCN(Cc5ccc[nH]5)CC4)c3n2)c1` [Compound 15, 3-{6-(3,6-dihydro-2H-pyran-4-yl)-9-[1-(1H-pyrrol-2-ylmethyl)piperidin-4-yl]-9H-purin-2-yl}phenol] are 1.4 µM, 0.28 µM and 0.736 µM.
For `CN1CCC(n2cnc3c(C4=CCOCC4)nc(-c4cccc(O)c4)nc32)CC1` [Compound 16, 3-[6-(3,6-dihydro-2H-pyran-4-yl)-9-(1-methylpiperidin-4-yl)-9H-purin-2-yl]phenol], the IC50 at Human mTOR is 2.3 µM; against PI3 Kinase α, 1.63 µM; at PI3 Kinase γ, 3.2 µM.
As to `Oc1cccc(-c2nc(C3=CCOCC3)c3ncn(C4CCN(Cc5cnc[nH]5)CC4)c3n2)c1` [Compound 17, 3-{6-(3,6-dihydro-2H-pyran-4-yl)-9-[1-(1H-imidazol-5-ylmethyl)piperidin-4-yl]-9H-purin-2-yl}phenol], the IC50 at Human mTOR turned out to be 1.2 µM; against PI3 Kinase α, 1.06 µM; on PI3 Kinase γ, 2.58 µM.
`Cc1ccc(CN2CCC(n3cnc4c(C5=CCOCC5)nc(-c5cccc(O)c5)nc43)CC2)cc1` [Compound 18, 3-{6-(3,6-dihydro-2H-pyran-4-yl)-9-[1-(4-methylbenzyl)piperidin-4-yl]-9H-purin-2-yl}phenol]: the half-maximal inhibitory concentration (IC50) at Human mTOR turned out to be 2.1 µM; on PI3 Kinase α it was 12 µM; against PI3 Kinase γ, 12 µM.
In the case of `Oc1cccc(-c2nc(C3=CCOCC3)c3ncn(C4CCN(Cc5ccc(Br)nc5)CC4)c3n2)c1` [Compound 19, 3-[9-{1-[(6-bromopyridin-3-yl)methyl]piperidin-4-yl}-6-(3,6-dihydro-2H-pyran-4-yl)-9H-purin-2-yl]phenol], the concentration for half-maximal inhibition (IC50) at Human mTOR was 0.69 µM; against PI3 Kinase α it was 5 µM; against PI3 Kinase γ, greater than 10 µM.
As for `Oc1cccc(-c2nc(C3=CCOCC3)c3ncn(C4CCN(Cc5ccc(F)c(F)c5)CC4)c3n2)c1` [Compound 20, 3-{9-[1-(3,4-difluorobenzyl)piperidin-4-yl]-6-(3,6-dihydro-2H-pyran-4-yl)-9H-purin-2-yl}phenol], the figures for the 50% inhibitory concentration (IC50) at PI3 Kinase α and against PI3 Kinase γ were 7 µM and greater than 10 µM, respectively.
For the compound `OCc1cccc(-c2nc(C3=CCOCC3)c3ncn(C4CCN(Cc5ccccc5)CC4)c3n2)c1` [Compound 21, {3-[9-(1-benzylpiperidin-4-yl)-6-(3,6-dihydro-2H-pyran-4-yl)-9H-purin-2-yl]phenyl}methanol], the half-maximal inhibitory concentration (IC50) stood at 3.5 µM on Human mTOR, 0.952 µM at PI3 Kinase α and 4.36 µM against PI3 Kinase γ.
On to `OCc1cccc(-c2nc(C3=CCOCC3)c3ncn(C4CCN(Cc5ccc(F)nc5)CC4)c3n2)c1` [Compound 22, {3-[6-(3,6-dihydro-2H-pyran-4-yl)-9-{1-[(6-fluoropyridin-3-yl)methyl]piperidin-4-yl}-9H-purin-2-yl]phenyl}methanol], for which the IC50 was 1.9 µM at Human mTOR, 1.05 µM against PI3 Kinase α and 5.41 µM at PI3 Kinase γ.
The like results for `OCc1cccc(-c2nc(C3=CCOCC3)c3ncn(C4CCN(Cc5cccnc5)CC4)c3n2)c1` [Compound 23, (3-{6-(3,6-dihydro-2H-pyran-4-yl)-9-[1-(pyridin-3-ylmethyl)piperidin-4-yl]-9H-purin-2-yl}phenyl)methanol] were, in that order, 3.8 µM, 1.49 µM and 7.37 µM.
`OCc1cccc(-c2nc(C3=CCOCC3)c3ncn(C4CCN(Cc5ccccn5)CC4)c3n2)c1` [Compound 24, (3-{6-(3,6-dihydro-2H-pyran-4-yl)-9-[1-(pyridin-2-ylmethyl)piperidin-4-yl]-9H-purin-2-yl}phenyl)methanol]: the half-maximal inhibitory concentration (IC50) on Human mTOR came to 1.7 µM; against PI3 Kinase α, 1.69 µM; against PI3 Kinase γ, 7.62 µM.
The corresponding values for `OCc1cccc(-c2nc(C3=CCOCC3)c3ncn(C4CCN(Cc5ccc(Br)nc5)CC4)c3n2)c1` [Compound 25, {3-[9-{1-[(6-bromopyridin-3-yl)methyl]piperidin-4-yl}-6-(3,6-dihydro-2H-pyran-4-yl)-9H-purin-2-yl]phenyl}methanol] are 0.89 µM, 0.228 µM and 1.34 µM.
As to `O=C(Nc1ccc(-c2nc(C3=CCOCC3)c3ncn(C4CCNCC4)c3n2)cc1)NC1CCNCC1` [Compound 26, 1-{4-[6-(3,6-dihydro-2H-pyran-4-yl)-9-piperidin-4-yl-9H-purin-2-yl]phenyl}-3-piperidin-4-ylurea], the half-inhibitory concentration (IC50) was greater than 4 µM on Human mTOR, 2.67 µM against PI3 Kinase α and 7 µM at PI3 Kinase γ.
